Measured values reported in BindingDB's records for doi:10.1016/j.chembiol.2017.01.003 (The University of Queensland, 2017).

molecular target: T1, Transcription factor SOX-18 (Mouse, UniProt P43680); test: Fluorescence Polarization Assay; settings: pH 7.5; 37 °C
T1 sequence (P43680 whole entry): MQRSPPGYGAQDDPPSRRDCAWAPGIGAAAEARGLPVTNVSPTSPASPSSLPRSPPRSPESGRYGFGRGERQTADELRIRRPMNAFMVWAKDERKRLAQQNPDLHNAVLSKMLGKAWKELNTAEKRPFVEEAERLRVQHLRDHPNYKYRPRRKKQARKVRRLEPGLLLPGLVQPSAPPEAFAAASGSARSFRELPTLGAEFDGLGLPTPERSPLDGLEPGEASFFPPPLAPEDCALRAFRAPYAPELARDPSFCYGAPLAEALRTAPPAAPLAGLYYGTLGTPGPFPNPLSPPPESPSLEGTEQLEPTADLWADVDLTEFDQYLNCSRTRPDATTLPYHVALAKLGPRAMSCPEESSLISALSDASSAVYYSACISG
Experimental: The DNA-binding competition assay was performed in 25 μL, in black 384-well plates, using either 30 mM HEPES (N-2-Hydroxyethylpiperazine-N'-2-Ethanesulfonic Acid) (pH 7.5, with 100 mM KCl, 40 mM NaCl, 10 mM NH4OAc, 10 mM Guanidinium, 2 mM MgCl2, 0.5 mM EDTA, 0.01% NP-40) for mouse full length SOX18, or Tris-NaCl (10 mM Tris pH 8.0 and 100 mM NaCl) for SOX-HMG fragments. All experiments were performed using a 40bp double-stranded Prox1-DNA element with 5' fluorescein amidite (FAM) label (Sigma Proligo or InVitrogen). Optimum binding levels were obtained at 200 nM of mouse full length SOX18 and 60 nM of SOX-HMG fragment, in presence of 5 nM labelled DNA. Controls consisted of free labelled DNA (low FP milli-Polarization index, mP), labelled DNA in presence of protein (negative control, high mP), and labelled DNA and protein in presence of 400 time competing excess of unlabelled DNA (positive control, low mP). Depending on compound, final DMSO concentrations ranged from 2 to 3.33% v/v. After mixing protein, DNA probe and compound, plates were sealed and briskly agitated in the dark for 5 minutes at room temperature, 10 minutes at 37 °C, and 30 minutes at room temperature, before reading fluorescencepolarization on a Tecan M1000Pro (λexc = 485 nm, λem = 525 nm). All experiments were performed intriplicates.

Structure (SMILES) | IC50
COc1ccc(OCC(=O)c2ccc(O)cc2O)cc1 [Sm11] | 3800 µM
O=C(O)c1c(O)cccc1COCCC1C=CC=CC1 (stereo unspecified) [Sm5] | 1110 µM
COc1cccc(CCCCCCc2ccccc2)c1C(=O)O [Sm8] | 327 µM

Now from value to compound:

IC50 | Structure (SMILES)
97.5 µM | O=C(O)c1c(O)cccc1CCc1ccc2ccccc2c1 [Sm4]
481 µM | Cc1cccc2c(=O)c3c(O)cc(O)cc3oc12 [Sm13]
2880 µM | O=C(COc1ccc2ccccc2c1)c1ccc(O)cc1O [Sm12]
